Measured values reported in ChEMBL document CHEMBL1212888, “NMR spectroscopy and computational analysis of interaction between Serratia marcescens chitinase B and a dipeptide derived from natural-product cyclopentapeptide chitinase inhibitor argifin” (Bioorg Med Chem, 2010).

Target: T1, Chitinase B (Serratia marcescens, UniProt P11797)
T1 sequence (P11797 whole entry): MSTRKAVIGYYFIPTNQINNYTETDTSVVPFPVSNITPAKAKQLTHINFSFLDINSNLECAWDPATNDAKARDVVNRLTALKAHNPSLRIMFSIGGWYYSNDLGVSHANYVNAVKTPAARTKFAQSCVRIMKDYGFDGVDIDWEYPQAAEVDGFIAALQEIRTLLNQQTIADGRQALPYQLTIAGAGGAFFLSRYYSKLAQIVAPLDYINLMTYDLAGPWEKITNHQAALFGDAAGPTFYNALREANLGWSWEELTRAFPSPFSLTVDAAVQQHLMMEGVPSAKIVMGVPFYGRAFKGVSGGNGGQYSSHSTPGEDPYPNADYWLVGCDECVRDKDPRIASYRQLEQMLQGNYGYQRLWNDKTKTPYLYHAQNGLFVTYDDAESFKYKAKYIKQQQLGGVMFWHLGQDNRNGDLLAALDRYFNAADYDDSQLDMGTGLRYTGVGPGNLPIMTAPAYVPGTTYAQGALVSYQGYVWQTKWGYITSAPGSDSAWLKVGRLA
Test: Inhibition of Serratia marcescens chitinase B

## CNC(=O)NC(=N)NCCC[C@@H]1NC(=O)[C@@H](C)NC(=O)C[C@@H](C(=O)O)NC(=O)C[C@@H](C(=O)O)NC(=O)[C@H](Cc2ccccc2)N(C)C1=O [ARGIFIN]
  Kd: 33 µM
